In patent publication US8604195B2, “Substituted bicyclic piperidinyl- and piperazinyl-sulfonamides useful to inhibit 11β-hydroxysteroid dehydrogenase type-1” (Merck Sharp & Dohme Corp., priority 2007, dated 2013):

How the values were obtained:
Mouse 11-β-HSD1 = Mouse 11-β-HSD1 (Mus musculus, UniProt P50172); test: 11β-HSD1 enzymatic activity, 3H-cortisone SPA, mouse enzyme; conditions: Mouse 11-β-HSD1 IC50 (nM), membrane, 125 nM 3H-cortisone, 1 hr room temperature
Procedure: (§1) The reaction was incubated at room temperature for 1 hr before it was stopped by addition of 50 μM buffer containing 20 mM NaPO4 pH 7.5, 30 μM 18β-glycyrrhetinic acid, 1 μg/ml monoclonal anti-cortisol antibody (Biosource) and 2 mg/ml anti-mouse antibody coated scintillation proximity assay (SPA) beads (Amersham Bioscience). The mixture was incubated at room temperature for 2 hrs with vigorous shaking and analyzed on TopCount scintillation counter.

Human 11-β-HSD1 = Human 11-β-HSD1 (Homo sapiens, UniProt P28845); test: 11β-HSD1 enzymatic activity, 3H-cortisone SPA, human enzyme; conditions: Human 11-β-HSD1 IC50 (nM), membrane, 125 nM 3H-cortisone, 1 hr room temperature
Human 11-β-HSD1, sequence (P28845 whole entry): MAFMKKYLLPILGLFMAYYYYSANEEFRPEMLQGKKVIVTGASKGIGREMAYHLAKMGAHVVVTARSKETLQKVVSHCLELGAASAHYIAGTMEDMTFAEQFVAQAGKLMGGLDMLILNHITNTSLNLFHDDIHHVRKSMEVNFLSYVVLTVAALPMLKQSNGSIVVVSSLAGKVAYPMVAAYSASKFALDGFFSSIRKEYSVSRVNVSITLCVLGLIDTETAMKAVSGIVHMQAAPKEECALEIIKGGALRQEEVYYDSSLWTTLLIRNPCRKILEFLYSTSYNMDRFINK
Procedure: as §1

Mouse 11-β-HSD1, sequence (P50172 whole entry): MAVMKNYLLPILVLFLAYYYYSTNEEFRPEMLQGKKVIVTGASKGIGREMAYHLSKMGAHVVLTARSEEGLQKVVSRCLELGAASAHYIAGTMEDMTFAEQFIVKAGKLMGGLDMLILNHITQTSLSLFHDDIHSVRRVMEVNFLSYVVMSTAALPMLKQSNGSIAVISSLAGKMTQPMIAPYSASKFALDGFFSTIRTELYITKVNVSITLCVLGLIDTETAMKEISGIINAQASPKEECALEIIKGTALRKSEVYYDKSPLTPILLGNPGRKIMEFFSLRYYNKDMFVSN

SMILES | IC50 (Mouse 11-β-HSD1) [nM] | IC50 (Human 11-β-HSD1) [nM]
CCC(C)(C)c1ccc(S(=O)(=O)N2C[C@@H]3C[C@H]2CN3C)cc1 [Compound 21] | 258 | 333
CC(C)(C)c1ccc(S(=O)(=O)N2C3CCC2CC(O)(Cc2ccccc2)C3)cc1 (stereo not drawn) [Compound 15] | 114 | 740
CC(C)(C)c1ccc(S(=O)(=O)N2C3CCC2CC(O)(c2ccccc2)C3)cc1 (stereo not drawn) [Compound 16] | 138 | –
CC(C)(C)c1ccc(S(=O)(=O)N2C3CCC2CC(Oc2ccc(C#N)cn2)C3)cc1 (single isomer, unassigned) [Compound 6] | 5590 | 413
CC(C)(C)c1ccc(S(=O)(=O)N2C3CCC2CC(Oc2ccc(C#N)cn2)C3)cc1 (single isomer, unassigned) [Compound 5] | 23800 | > 10000
